Source: patent US6630125B2, “18F-labeled choline analogs” (priority 2000, dated 2003)
Read-outs that look alike come from different tables or passages of the source.

Tests used:
[1] = system: PC-3 human prostate cancer cells; assay: Accumulation of radiotracers by cultured PC-3 cells; format: cell-based; details: for Uptake by PC-3 cancer cells, HC-3: 5 mM hemicholinium-3; for accumulation by cultured PC-3 cells compared with other tracers: control conditions; for Uptake by PC-3 cancer cells, Control: 2 hr incubation
Protocol: The incubation media utilized for the experiments differed according to the cancer cell type (Table 1). On the day of the study, the medium was refreshed using a volume of 1 ml in each well. Cells were incubated in control conditions or with the addition of metabolic and growth factor receptor inhibitors to test the sensitivity of uptake of the radiotracers to specific inhibitions. […] Following a 30-min incubation period, the radiotracers (e.g., FDG or FCH) were added (˜2 µCi/well) and the cells were incubated for 2 hr. The cells were washed three times with phosphate buffered saline solution, released from the plates by briefly incubating with 0.05% trypsin in DMEM, transferred to test tubes, and counted for F-18 radioactivity in a gamma counter. The amount of radioactivity in the cells was normalized by the dose administered to each well.
The present work studies the structure-activity relationships for purposes of optimization of the molecule for imaging prostate cancer. […] A number of structural analogs of choline were labeled as N-[^18F]fluoromethyl derivatives via the intermediate [^18F]fluorobromomethane (see Table 3). Uptake of the radiotracers was assessed in cultured PC-3 human prostate cancer cells and in a murine PC-3 xenograft model.

[2] = system: mice with PC-3 xenografts; details: for tumor uptake: PC-3 xenograft
Protocol: Body weight and tumor volume were measured weekly and tumor volume (mm3) was calculated using the formula S2×L/2, where S and L represent the small and large diameters of the tumor, respectively.
A prescribed duration of time was allowed before procurement of heart, liver, lung, blood, kidney, bone (femur), brain (whole), prostate gland, tumor, bladder, and skeletal muscle. The tissues were weighed, and counted for ^18F in a gamma counter, then dissolved in Solvable (Dupont, Boston Mass.) and counted for ^14C in a liquid scintillation counter. For the bladder, the percentage of the injected dose in the urine was determined. For all other tissues, radiotracer uptake was calculated as: […]

yeast choline kinase = target: T1, yeast choline kinase (Saccharomyces cerevisiae, UniProt P20485); assay: In vitro phosphorylation by yeast choline kinase; format: biochemical; details: 1 μM choline; for In vitro phosphorylation: 25 mU/ml yeast choline kinase, 23° C., 10 min, n = 5
T1 sequence (P20485 1-582): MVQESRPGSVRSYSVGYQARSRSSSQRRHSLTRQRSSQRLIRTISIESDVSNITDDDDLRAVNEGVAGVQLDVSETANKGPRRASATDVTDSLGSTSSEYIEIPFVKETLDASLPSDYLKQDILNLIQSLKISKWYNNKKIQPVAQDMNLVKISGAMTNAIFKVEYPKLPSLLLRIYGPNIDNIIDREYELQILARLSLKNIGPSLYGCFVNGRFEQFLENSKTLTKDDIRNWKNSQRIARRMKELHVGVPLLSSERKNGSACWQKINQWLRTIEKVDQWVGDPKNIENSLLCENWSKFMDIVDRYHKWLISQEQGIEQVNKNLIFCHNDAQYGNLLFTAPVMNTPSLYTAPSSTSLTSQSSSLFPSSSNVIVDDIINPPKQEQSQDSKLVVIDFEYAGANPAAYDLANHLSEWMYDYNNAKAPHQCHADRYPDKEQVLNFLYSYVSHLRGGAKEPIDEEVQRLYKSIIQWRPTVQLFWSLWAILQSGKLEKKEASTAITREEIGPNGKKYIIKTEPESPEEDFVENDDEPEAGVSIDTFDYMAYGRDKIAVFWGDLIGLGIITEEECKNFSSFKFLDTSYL
Protocol: The test tube was gently agitated throughout the incubation period. The reaction was stopped by placing the tube in a boiling water bath for 2 min. To serve as controls, some samples were placed directly in the boiling water bath after addition of all substrates. […] The percentage of radioactivity converted to the phosphorylated form was calculated.

[3] = system: patients with prostate cancer; assay: PET imaging in patients with prostate cancer; details: Example 11 patient, metastatic prostate cancer
Protocol: The distribution of FCH in PET imaging studies was evaluated in 14 patients with prostate cancer, 14 patients with breast cancer, and 5 patients with brain tumors. Imaging was performed using the Advance PET scanner (GE Medical Systems, Milwaukee, Wis.). […] In prostate cancer patients, a transmission scan of the pelvic region was obtained before administration of radiotracer. FCH (2.5-5 mCi) was administered intravenously, and dynamic imaging of the pelvis region was commenced for 20-30 min. During image reconstruction, the emission data in the pelvic region were corrected for photon attenuation using the transmission scan. Immediately following the dynamic scan, a whole-body emission scan was performed without transmission scanning for attenuation correction. The images were reconstructed using an Ordered Subset Expectation Maximum (OS-EM) algorithm. Regions-of-interest were drawn manually on the attenuation corrected images for evaluation of FCH kinetics in tissues. Standardized uptake values of FCH uptake in tissues were calculated using the attenuation-corrected images according to the equation: [formula]
Patient 2: Transmission and FCH emission scans of a person with hormone naive clinical stage T2 prostate cancer were commenced over the lower pelvis.
The same patient was scanned with FDG within the same week (FIG. 8).
Patient 4: A person with a history of clinical stage T3b prostate cancer treated by radical retropubic prostatectomy was diagnosed with metastatic disease by bone scan. FCH-PET imaging was performed before and after initiating androgen deprivation therapy. In the first study, whole-body emission scanning was started 5 min after injection, beginning at the pelvic region in order to image the pelvis and prostatic bed before arrival of urinary radioactivity. […] The patient was rescanned 2 weeks after initiating androgen deprivation therapy.
Patient 5: A person was initially diagnosed five years prior with locally advanced clinical stage T3NOMO prostate cancer and underwent radical prostatectomy followed by external beam radiation to the prostate bed. […] The patient was then treated with Zolex and Casodex.

[4] = inhibitor HC-3 (hemicholinium-3, 5 mM)

SMILES: C#CC[N+](C)(C[18F])CCO (stereo not shown) [FPP]
- Uptake by PC-3 cells ([1]; inhibitor none): 7.90 ± 0.53 % dose/2 hr/10^5 cells plated

SMILES: C[N+](C)(C[18F])CCCO [FHC, [^18F]fluorohomocholine]
- uptake in cultured PC-3 cells [1]: ~2 %/hr/100,000 cells plated
- Uptake by PC-3 cells ([1]; inhibitor none): 1.635 ± 0.306 % dose/2 hr/10^5 cells plated
- tumor uptake [2]: ~0.07 % dose kg/g

SMILES: [2H]C([2H])(O)C[N+](C)(CC)C[18F] (stereo not shown) [FEDC]
- Uptake by PC-3 cells ([1]; inhibitor none): 0.720 ± 0.065 % dose/2 hr/10^5 cells plated

SMILES: CC[N+](C)(C[18F])CCO (stereo not shown) [FEtC, [^18F]fluoromethylethylcholine]
- phosphorylation rate compared with CH (yeast choline kinase): equivalent to CH
- In vitro phosphorylation (yeast choline kinase): 55.2 ± 6.6%
- uptake in cultured PC-3 cells [1]: ~2 %/hr/100,000 cells plated
- Uptake by PC-3 cancer cells, HC-3 [1]: 0.12 ± 0.02 % dose/2 hr/105 cells plated
- accumulation by cultured PC-3 cells compared with other tracers [1]: higher than HARA-1 (p<0.05), but lower than FCH
- Uptake by PC-3 cancer cells, Control [1]: 0.74 ± 0.04 % dose/2 hr/105 cells plated
- Uptake by PC-3 cells [1, 4]: 0.122 ± 0.016 % dose/2 hr/10^5 cells plated
- Uptake by PC-3 cells ([1]; inhibitor none): 0.741 ± 0.041 % dose/2 hr/10^5 cells plated
- tumor uptake [2]: ~0.07 % dose kg/g

SMILES: OCC[N+]1(C[18F])CCCC1 [cyclic 5N]
- Uptake by PC-3 cells ([1]; inhibitor none): 0.355 ± 0.028 % dose/2 hr/10^5 cells plated

SMILES: CCC[N+](C)(C[18F])CCCO (stereo not shown) [Propyl-prop.]
- Uptake by PC-3 cells ([1]; inhibitor none): 0.234 ± 0.050 % dose/2 hr/10^5 cells plated

SMILES: C[N+](C[18F])(CCO)Cc1ccccc1 (stereo not shown) [benzyl]
- Uptake by PC-3 cells ([1]; inhibitor none): 0.202 ± 0.009 % dose/2 hr/10^5 cells plated

SMILES: C[N+]1(C[18F])CCCC(O)C1 (stereo not shown) [cyclic N—OH]
- Uptake by PC-3 cells ([1]; inhibitor none): 0.077 ± 0.011 % dose/2 hr/10^5 cells plated

SMILES: CCC[N+](C)(C[18F])CCO (stereo not shown) [FPrC]
- uptake in cultured PC-3 cells [1]: ~2 %/hr/100,000 cells plated
- Uptake by PC-3 cells [1, 4]: 0.062 ± 0.001 % dose/2 hr/10^5 cells plated
- Uptake by PC-3 cells ([1]; inhibitor none): 1.877 ± 0.115 % dose/2 hr/10^5 cells plated
- tumor uptake [2]: ~0.07 % dose kg/g

SMILES: CC(CO)[N+](C)(C)C[18F] (stereo not shown) [Tracer 2-methyl]
- Uptake by PC-3 cells ([1]; inhibitor none): 0.182 ± 0.016 % dose/2 hr/10^5 cells plated

SMILES: C=CC[N+](C)(C[18F])CCO (stereo not shown) [Allyl]
- Uptake by PC-3 cells [1, 4]: 0.11 ± 0.01 % dose/2 hr/10^5 cells plated
- Uptake by PC-3 cells ([1]; inhibitor none): 4.45 ± 0.46 % dose/2 hr/10^5 cells plated

SMILES: CC(C)C[N+](C)(C[18F])CCO (stereo not shown) [Isobutyl]
- Uptake by PC-3 cells ([1]; inhibitor none): 2.74 ± 0.09 % dose/2 hr/10^5 cells plated

SMILES: OCC[N+]1(C[18F])CCCCC1 [cyclic 6N]
- Uptake by PC-3 cells ([1]; inhibitor none): 0.144 ± 0.014 % dose/2 hr/10^5 cells plated

SMILES: C[N+](C)(CCO)CCC[18F] [FPC, [^18F]fluoropropylcholine]
- phosphorylation rate, less than for FCH (yeast choline kinase): ~60%
- In vitro phosphorylation (yeast choline kinase): 22.1 ± 3.1 %
- Uptake by PC-3 cancer cells, HC-3 [1]: 0.76 ± 0.20 % dose/2 hr/105 cells plated
- decrease in uptake by PC-3 cells with hemicholinium-3 (HC-3) ([1]; HC-3 versus control): 41%
- accumulation by cultured PC-3 cells compared with other tracers [1]: not significantly different from that of FCH
- Uptake by PC-3 cancer cells, Control [1]: 1.29 ± 0.28 % dose/2 hr/105 cells plated

SMILES: CC[N+](CC)(C[18F])CCO [Diethyl]
- Uptake by PC-3 cells ([1]; inhibitor none): 0.503 ± 0.091 % dose/2 hr/10^5 cells plated

SMILES: OCC[N+]1(C[18F])CCOCC1 [cyclic 6NO]
- Uptake by PC-3 cells ([1]; inhibitor none): 0.399 ± 0.014 % dose/2 hr/10^5 cells plated

SMILES: CCCCC[N+](C)(C[18F])CCO (stereo not shown) [Pentyl]
- Uptake by PC-3 cells ([1]; inhibitor none): 0.073 ± 0.007 % dose/2 hr/10^5 cells plated

SMILES: CC(O)C[N+](C)(C)C[18F] (stereo not shown) [Tracer 1-methyl]
- Uptake by PC-3 cells ([1]; inhibitor none): 0.202 ± 0.021 % dose/2 hr/10^5 cells plated

SMILES: C[N+](C)(C[18F])CCCCO [Butanol]
- Uptake by PC-3 cells [1]: 0.140 ± 0.042 % dose/2 hr/10^5 cells plated

SMILES: [2H]C([2H])(O)C[N+](C)(C[18F])CCC (stereo not shown) [propyl - D]
- Uptake by PC-3 cells ([1]; inhibitor none): 1.864 ± 0.307 % dose/2 hr/10^5 cells plated

SMILES: CCC(C)[N+](C)(C[18F])CCO (stereo not shown) [Sec-butyl]
- Uptake by PC-3 cells ([1]; inhibitor none): 0.28 ± 0.01 % dose/2 hr/10^5 cells plated

SMILES: CC[N+](C)(C[18F])CCCO (stereo not shown) [Ethyl-Prop.]
- Uptake by PC-3 cells ([1]; inhibitor none): 0.285 ± 0.023 % dose/2 hr/10^5 cells plated

SMILES: [2H]C([2H])(O)C[N+](C)(C)C[18F] [FDC]
- Uptake by PC-3 cells ([1]; inhibitor none): 2.410 ± 0.144 % dose/2 hr/10^5 cells plated
- Tumor:muscle ratio ([2]; 60 min after injection): highest
- tumor:blood ratio ([2]; 60 min after injection): highest
- SUV of osseous lesion (pubic ramus) [3]: 11.7

SMILES: C[N+](C[18F])(CCO)CCO [Diethanol]
- Uptake by PC-3 cells ([1]; inhibitor none): 0.462 ± 0.083 % dose/2 hr/10^5 cells plated

SMILES: [2H]C([2H])(O)CC[N+](C)(C)C[18F] [propanol - D]
- Uptake by PC-3 cells [1]: 0.763 ± 0.065 % dose/2 hr/10^5 cells plated

SMILES: OCC[N+](C[18F])(CCO)CCO [triethanol]
- Uptake by PC-3 cells ([1]; inhibitor none): 0.170 ± 0.045 % dose/2 hr/10^5 cells plated

SMILES: CCCC[N+](C)(C[18F])CCO (stereo not shown) [Butyl]
- Uptake by PC-3 cells ([1]; inhibitor none): 0.153 ± 0.021 % dose/2 hr/10^5 cells plated
